Measured values as given in patent US20030143634A1, “Method to detect interactions between cellular components in intact living cells, and to extract quantitative information relating to those interactions by fluorescence redistribution” (Biolmage A/S, priority 2001, published 2003).
pEC50: −log10 of the molar value.

Legend:
FRB(T2098L) and FKBP [1] = biological target: T1, FRB(T2098L) and FKBP (Homo sapiens, UniProt P42345+P62942, T2098L); assay: 3-part Src(1-14) system, response to dimerizer; assay type: cell-based; details: CHO cells, 500 nM AP21967 for 120 minutes
T1 construct: expressed in transfected cells; host or cells: CHO
Source text: (§1) In this specific example, the 3 components of this second system were as follows:
(§2) 1) The anchor conjugate was made by fusing c-Src(1-14) to FRB(T2098L) [ps1549]. The cellular localization of the anchor could be detected with an antibody directed against the HA-tag included in the anchor fusion protein
(§3) 2) The mediator conjugate [ps1556] comprised wild-type FKBP protein fused to tandem repeats of FKBP(F36M), a mutant form of the protein that is known as FM and also CAD, and the coding plasmid for which was obtained from ARIAD Pharmaceuticals
(§4) 3) The detectable conjugate was made by fusing tandem repeats of CAD to EGFP [ps1547].
The three conjugates are depicted in diagrammatic form in FIG. 5a. CAD proteins spontaneously homodimerize, so mediator and detectable conjugates are normally linked together in the 3-part system (FIG. 5b). Therefore in this example, the protein interaction to be tested was the CAD:CAD link between mediator and detectable conjugates. […] The link between CAD proteins can be broken by ARIAD compound AP21998 (FIG. 5d). AP21998 was therefore used as the reference compound to validate the system. […]
(§5) Without dimerizer present in the medium, cells from both 2- and 3-part Src(1-14) systems display a more or less uniform distribution of GFP fluorescence, throughout cytoplasmic and nuclear compartments (FIGS. 23a and 24a). […]

FRB(T2098L) and FKBP [2] = biological target: T1, FRB(T2098L) and FKBP; assay: 2-part Histone H2B system, response to dimerizer and competition by FK506; assay type: cell-based; details: CHO cells
Experimental: The 2-part assay also acts as counter screen for any compounds that may directly or indirectly affect the location of the anchor protein itself within the cell.
(§6) For compatibility with high throughput screening the cells were grown in microtitre plates for 16 hours from a seeding density of 1.0×10E5 cells per 400 μL, and an extraction procedure (described in Example 3) was used to remove mobile fluorescent components from cells, so that signal from immobile components locked in the nucleus could be measured. Plates were routinely stained with the nuclear dye Hoechst 22538 to enable correction of the immobile EGFP fluorescence signal from each well for cell density.
(§7) Signals from immobile EGFP-labelled components and from the nuclear stain were read on an fluorescence plate reader (Fluoroskan Ascent CF, Labsystems, Finland) equipped with appropriate filter sets (EGFP: excitation 485 nm, emission 527 nm; Hoechst 22538: excitation 355 nm, emission 460 nm).

FRB(T2098L) and FKBP [3] = biological target: T1, FRB(T2098L) and FKBP; assay: 2-part ActinPaint system, response to dimerizer; assay type: cell-based; details: CHO cells
Experimental: (§8) The first system consists of 2 parts, an anchor conjugated to FRB(T2098L) [plasmid construct ps1570] and a detectable conjugate comprising FKBP fused to EGFP [ps1208]—these conjugates are depicted in FIG. 4a. […] The 2-part assay also acts as counter screen for any compounds that may directly or indirectly affect the location of the anchor protein itself within the cell.
as §6, with “components” for “components locked in the nucleus”
as §7, with “nm). […] For further experiments a dimerizer concentration of 800 nM for 2 hours was selected as giving adequate signal to background for extracted cells to be read on the Ascent plate reader.” for “nm).”

FRB(T2098L) and FKBP [4] = biological target: T1, FRB(T2098L) and FKBP; assay: 2-part Src(1-14) system, response to dimerizer; assay type: cell-based; details: CHO cells, 500 nM AP21967 for 60 minutes
Source text: as §8, with “ps1549]” for “ps1570]”, “[ps1208].” for “[ps1208]—these conjugates are depicted in FIG. 4a.”
CHO cells were transfected and cultured essentially as described in Example 2, except the complement of plasmids required for the 2 and 3-part systems were transfected simultaneously rather than sequentially (as described in Example 2).
For selection of co-expressing cells, 2-part system cells transfected with ps1549+ps1208 were cultured with 1 mg/ml zeocin+5 μg/ml blasticidin HCl. Cells of the 3-part system were cultured with 1 mg/ml zeocin+5 μg/ml blasticidin HCl+0.5 mg/ml G418 sulphate.
This redistribution response to dimerizer is robust and can be competed by FK506. In the 3-part system, the response can also be competed by compound AP21998.
as §5, with “24a). Dimerizer addition results in recruitment of the CAD-linked mediator+detectable complexes to the plasma membrane (FIGS. 23b and 24b).” for “24a).”

FRB(T2098L) and FKBP [5] = biological target: T1, FRB(T2098L) and FKBP; assay: 3-part ActinPaint iGRIP system, response to dimerizer; assay type: cell-based; details: CHO cells, 800 nM AP21967, 37° C.
Source text: as §1
as §2, with “the F-actin binding domain of α-actinin (amino acids 1-133 of full protein sequence)” for “c-Src(1-14)”, “[ps1570] (also referred to as FRB*).” for “[ps1549].”
as §3, §4
The three conjugates are depicted in diagrammatic form in FIG. 5a. […]
as §6, with “components” for “components locked in the nucleus”, “density. […]” for “density.”

[6] = system: transcription factor-based detection system; details: data supplied by ARIAD Pharmaceuticals (RPD kit fact sheet); cited from earlier work
[7] = biological target: T2, CAD:CAD link between mediator and detectable conjugates (Homo sapiens, UniProt P62942, F37M); assay: 3-part ActinPaint iGRIP system, interaction inhibitor dose-response (extraction procedure, plate reader); assay type: cell-based; details: CHO cells
T2 construct: expressed in transfected cells; host or cells: CHO
Source text: as §1
as §2, with “the F-actin binding domain of α-actinin (amino acids 1-133 of full protein sequence)” for “c-Src(1-14)”, “[ps1570] (also referred to as FRB*).” for “[ps1549].”
as §3, §4
The three conjugates are depicted in diagrammatic form in FIG. 5a. CAD proteins spontaneously homodimerize, so mediator and detectable conjugates are normally linked together in the 3-part system (FIG. 5b). Therefore in this example, the protein interaction to be tested was the CAD:CAD link between mediator and detectable conjugates. […] The link between CAD proteins can be broken by ARIAD compound AP21998 (FIG. 5d). AP21998 was therefore used as the reference compound to validate the system. CHO cells were transfected and cultured essentially as described in Example 2, except the complement of plasmids required for the 2 and 3-part systems were transfected simultaneously rather than sequentially (as described in Example 2).
as §6, with “components” for “components locked in the nucleus”, “density. […]” for “density.”
ActinPaint system. […] Plates were processed for extraction and nuclear staining then read in an Ascent plate reader. […]

[8] = biological target: T2, CAD:CAD link between mediator and detectable conjugates; assay: 3-part Histone H2B iGRIP system, interaction inhibitor dose-response (extraction procedure, plate reader); assay type: cell-based; details: CHO cells
Source text: as §1
1) The anchor conjugate was made by fusing histone H2B to FRB(T2098L) [ps1569] (also referred to as FRB*). The cellular localization of the anchor could be detected with an antibody directed against the HA-tag included in the anchor fusion protein
as §3, §4
The three conjugates are depicted in diagrammatic form in FIG. 5a. CAD proteins spontaneously homodimerize, so mediator and detectable conjugates are normally linked together in the 3-part system (FIG. 5b). Therefore in this example, the protein interaction to be tested was the CAD:CAD link between mediator and detectable conjugates. […] The link between CAD proteins can be broken by ARIAD compound AP21998 (FIG. 5d). AP21998 was therefore used as the reference compound to validate the system.
as §6
Dose-response of this CAD-interaction inhibitor in the 3-part Histone H2B system could be compared with the compound's efficacy and potency in other systems, to determine if similar sensitivity to the inhibitor (and other inhibitors) could be expected from the Histone H2B system. […] Plates were processed for extraction and nuclear staining then read in an Ascent plate reader. […]

[9] = 1000 nM AP21967, 2 hours, extraction procedure
[10] = AP21998 greater than 5 μM plus 800 nM AP21967, 2 hours

| Compound | EGFP distribution in micrograph (FIG. 24b) (FRB(T2098L) and FKBP [1]) | time after which recruitment of fluorescence to the nuclei is visible (FRB(T2098L) and FKBP [2]; 800 nM AP21967, 37° C.) [min] | time to maximum response (recruitment to nuclei) (FRB(T2098L) and FKBP [2]; 800 nM AP21967, 37° C.) | increase of signal from immobile EGFP-labelled components relative to untreated cells (FRB(T2098L) and FKBP [2]; [9]) | time after which recruitment of fluorescence to F-actin aggregates is visible (FRB(T2098L) and FKBP [3]; 800 nM AP21967, 37° C.) [min] | increase of signal from immobile EGFP-labelled components relative to untreated cells (FRB(T2098L) and FKBP [3]; [9]) | EGFP distribution in micrograph (FIG. 23b) (FRB(T2098L) and FKBP [4]) | time after which EGFP labelling of aggregates is clearly visible (FRB(T2098L) and FKBP [5]) [min] | pEC50 [6] | EGFP distribution in micrograph (FIG. 7c) ([7]; 5 μM AP21998 for 2 hours after 800 nM AP21967 for 60 minutes, continued presence of AP21967) | EGFP-label remaining on the F-actin aggregates [7, 10] | pEC50 ([7]; co-treated with 800 nM AP21967, 2 hours, 37° C., read-out: EC50 for the prevention of recruitment / removal of EGFP-labelled components from the F-actin aggregates) | EGFP distribution in micrograph (FIG. 15c) ([8]; 800 nM AP21967 + 5 μM AP21998 for 2 hours) | EGFP-label remaining in the nuclei [8, 10] | pEC50 ([8]; co-treated with 800 nM AP21967, 2 hours, 37° C., read-out: EC50 for the prevention of recruitment / removal of EGFP-labelled components from the nuclear compartment) |
| --- | --- | --- | --- | --- | --- | --- | --- | --- | --- | --- | --- | --- | --- | --- | --- |
| CO[C@H]1[C@@H](O)[C@H](C)C[C@H](C)/C=C/C=C/C=C(\C)[C@@H](c2c[nH]c3c(C)cccc23)C[C@@H]2CC[C@@H](C)[C@@](O)(O2)C(=O)C(=O)N2CCCC[C@H]2C(=O)O[C@H]([C@H](C)C[C@@H]2CC[C@@H](O)[C@H](OC)C2)C[C@H](O)[C@H](C)/C=C(\C)[C@H]1O [AP21967] | recruited to the plasma membrane | 2 | approximately 10 minutes | approximately 2 fold | 2 | approximately 3 fold | recruited to the plasma membrane | 15 | – | – | – | – | – | – | – |
| CC[C@H](C(=O)N1CCCCC1C(=O)O[C@H](CCc1ccc(OC)c(OC)c1)c1cccc(OCC(=O)NCCCN(C)C)c1)c1cc(OC)c(OC)c(OC)c1 (stereo partly drawn) [AP21998] | – | – | – | – | – | – | – | – | ~6.70 | The bright aggregates have dispersed into the cytoplasm | no EGFP-label remained on the aggregates | ~5.96 | no nuclear accumulation | no EGFP-label remained in the nuclei | ~5.74 |
